Measurements taken from paper PMC6938345, “Inhibition of complement activation, myeloperoxidase, NET formation and oxidant activity by PIC1 peptide variants” (PLoS ONE, 2019).
Where a SMILES comes first, the peptide text is derived from it. [ ]: non-standard residue; d: D form. Sar = CNCC(=O)O

What was measured:
[1] = Peptide solubility in water
Experimental: (PA) (Table 1) were synthesized by New England Peptide (Gardner, MA) to >90% purity. Sarcosine variants and PEG were dissolved in water and the pH was adjusted with NaOH. PA was dissolved in DMSO and then brought up to the final concentration with water resulting in 30% DMSO and pH adjusted. Antibody sensitized sheep erythrocytes (EA), purified C1q and factor B-depleted human sera were purchased from Complement Technology (Tyler, TX). Purified myeloperoxidase was purchased from Lee BioSolutions (Maryland Heights, MO) and tetramethylbenzidine (TMB) and PicoGreen were purchased from Thermo Fisher (Waltham MA).
(PA), peptide derivatives were synthesized with sarcosine residues substituted at all 15 positions, included a peptide in which the vicinal cysteines at positions 9 and 10 (C9,C10) were replaced with a single sarcosine residue (Table 1).

[2] = test system: antibody-initiated complement activation (type O sera + type AB red blood cells); experiment: ABO incompatibility hemolytic assay (CH50-type, ex vivo); assay type: cell-based, human; conditions: peptides 1.8 mM; for ABO hemolysis: Avg of n = 4, concentration basis of PIC1 not stated
Experimental: For hemolytic complement assays, human red blood cells (RBCs) from type AB donors were purified, washed and standardized to 1 × 10^9 cells/ml, as previously described. Human sera from type O donors at a 20% final concentration was combined with 1 mM PIC1 or sarcosine variant peptides and the volume was brought up to 0.15 ml with GVBS^++ and 0.5 ml RBCs. For factor B-depleted sera hemolytic assays, a final of 0.005% factor B depleted sera was incubated with 1 mM PIC1 or sarcosine variant peptides with 0.1 ml antibody-sensitized sheep red blood cells (EA) in a final volume of 0.75 ml GVBS^++. The samples were incubated for 1 hour at 37 °C and then 1.0 ml of GVBS^-—was added to the factor B-depleted samples to stop the reaction. The samples were spun at 3,000 rpm for 5 minutes and the supernatant was collected and read at 412 nm. Values are represented as a percent of the positive control, which consists of human O sera and AB red blood cells in GVBS^++ buffer.
In order to evaluate the extent to which the peptide variants inhibit antibody-initiated complement activation, we tested them in two hemolytic assays including an ABO incompatibility ex vivo assay (Fig 1A) and a classical pathway CH50-type assay in factor B-depleted sera (Fig 1B). In the ABO incompatibility hemolytic assay, purified erythrocytes from a ‘type AB+’ donor are incubated with sera from a ‘type O’ subject containing anti-A and anti-B antibodies; peptides were tested at 1.8 mM. […] We then performed a CH50-type hemolytic assay, with antibody-sensitized sheep erythrocytes, isolating the classical pathway by utilizing factor B-depleted sera; peptides were tested at 0.4 mM.
Fig 1 Sarcosine variant inhibition of complement activation in hemolytic assays and C1q binding. A) Inhibition of ABO incompatibility hemolysis in a CH50-type assay. Peptides are at a final concentration of 1.8 mM. […] Data are the means of n = 4 independent experiments + SEM. B) Inhibition of classical complement pathway-mediated hemolysis in factor B-depleted sera in a CH50-type assay. Peptides are at a final concentration of 0.4 mM. Data are the means of n = 4 independent experiments + SEM. C) Binding of increasing concentrations of sarcosine variants to purified C1q in an ELISA-type assay. Data are the means of n = 3 independent experiments ± SEM. D) Half-maximal binding concentrations were calculated for each peptide’s binding curve.

[3] = Total Antioxidant Capacity (TAC) assay; conditions: for TAC assay, antioxidant activity: Avg of n = 3; for antioxidant capacity (in words): TAC assay
Experimental: The TAC (Total Antioxidant Capacity) Assay (Cell Biolabs, Inc, San Diego, CA) was used to measure the antioxidant capacity of the sarcosine variants based on the reduction of copper (II) to copper (I). The kit protocol was performed as recommended.
Antioxidant activity is measured in copper reducing equivalents (CRE). Peptides were tested over a range of concentrations from 0.03–0.25 mM then compared to the standard. Data are the means of n = 3 independent experiments + SEM.

[4] = test system: purified human neutrophils; experiment: NETosis assay, free DNA by PicoGreen; assay type: cell-based; conditions: for PICO green - NETs, free DNA release: Average of n = 3, peptide 2 mM
Experimental: NETosis assays with immune complexes were performed as previously described. Briefly, normal human serum was stimulated with ovalbumin-antiovalbumin immune complexes in GVBS^++ for 30 minutes at 37 °C. This mixture along with 0.05% H2O2 was then added to purified human neutrophils resuspended in RPMI with or without sarcosine variants (2 mM), allowing NETosis to occur. Quantitation of free DNA released from the neutrophils was performed using PicoGreen. Slides were stained with DAPI (Southern Biotech, Birmingham, AL) and the following antibodies, mouse anti-elastase (Invitrogen, Carlsbad, CA) was used with the secondary goat anti-mouse Alexa Fluor 568 (Novus Biologicals, Centennial, CO) and rabbit anti-histone H3 (Abcam, Cambridge MA) with goat anti-rabbit Alexa Fluor 488 (Novus Biologicals) to visualize formation of NETs which were imaged with fluorescence microscopy with an Olympus BX53 microscope.
In this assay purified human neutrophils are stimulated with normal human serum activated with ovalbumin-antiovalbumin immune complexes and hydrogen peroxide. Free DNA expressed from the neutrophils is then measured in a PicoGreen assay.
Fig 5 Sarcosine variant inhibition of NET formation. Fluorescence microscopy images of NET formation after neutrophil stimulation with immune complexes (IC) and hydrogen peroxide (H2O2) compared with neutrophil only control. Variant I8 inhibition of NET formation is shown in the third row. Histones are probed with anti-histone antibody (αhistone), neutrophil elastase is probed with anti-neutrophil elastase (αNE) and DNA is stained with DAPI. Representative images are shown. […] Purified human neutrophils were stimulated with 2% normal human sera pre-incubated with ovalbumin-antiovalbumin immune complexes, and 0.05% H2O2. Sarcosine peptides and PIC1 were added to the sera to a final concentration of 2 mM. Data are the means of n = 3 independent experiments + SEM.

C1q = molecular target: T1, C1q (Homo sapiens, UniProt P02745+P02746+P02747); experiment: C1q binding ELISA-type assay; conditions: C1q as capture substrate
T1 construct: purchased Complement Technology (Tyler, TX)
Experimental: An Immunlon-2 HB ELISA plate was coated with 1 μg/ml C1q or MPO in bicarbonate buffer overnight at 4 °C. The plates were washed with PBST (phosphate buffered saline + 0.1% Tween) and then blocked with 1% gelatin/PBS for 2 hours at room temperature. After washing, the plates were incubated with PA or sarcosine variant peptides starting at 2.5 mg/ml and then serially diluted in 1% gelatin/PBS for 1 hour at room temperature. After washing, the plates were probed with rabbit anti-PA (developed with Cocalico Biologicals, Reamstown, PA) at 1:1000 in 1% gelatin/PBS for 1 hour, room temperature, followed by a goat anti-rabbit HRP (Sigma Aldrich, St Louis, MO) at 1:1,000 in 1% gelatin/PBS for 1 hour at room temperature with a washing step in between. Wells were developed using TMB substrate solution, stopped using 1 N H2SO4, and read at 450 nm in a plate reader.
We then tested peptide variant binding to C1q in an ELISA-type assay in which the C1q is used as the capture substrate. Binding curves for each peptide is shown in Fig 1C, from which half-maximal binding concentrations were calculated (Fig 1D). […] Higher concentrations of DMSO interfere with the detecting reagents resulting in a partial binding curve.

T1 sequence (P02745 23-245): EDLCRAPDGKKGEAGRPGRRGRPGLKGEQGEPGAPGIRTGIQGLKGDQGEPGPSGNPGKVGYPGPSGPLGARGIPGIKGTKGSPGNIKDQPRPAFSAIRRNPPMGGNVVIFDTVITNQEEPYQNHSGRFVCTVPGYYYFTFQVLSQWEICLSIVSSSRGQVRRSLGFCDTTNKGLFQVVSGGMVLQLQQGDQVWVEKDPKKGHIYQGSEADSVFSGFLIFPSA
T1 sequence (P02746 28-253): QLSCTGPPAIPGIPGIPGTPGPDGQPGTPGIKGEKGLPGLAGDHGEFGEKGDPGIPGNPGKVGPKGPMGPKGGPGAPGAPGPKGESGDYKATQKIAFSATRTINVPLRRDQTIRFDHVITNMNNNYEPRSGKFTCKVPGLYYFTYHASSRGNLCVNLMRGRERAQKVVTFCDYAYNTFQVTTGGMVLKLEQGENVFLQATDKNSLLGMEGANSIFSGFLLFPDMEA
T1 sequence (P02747 29-245): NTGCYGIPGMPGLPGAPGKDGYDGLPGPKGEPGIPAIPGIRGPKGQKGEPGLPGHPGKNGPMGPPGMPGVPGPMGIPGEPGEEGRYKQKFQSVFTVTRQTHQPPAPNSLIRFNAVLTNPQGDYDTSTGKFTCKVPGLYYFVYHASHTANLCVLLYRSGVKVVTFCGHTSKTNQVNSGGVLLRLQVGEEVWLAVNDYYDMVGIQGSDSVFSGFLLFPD

Structure (SMILES)	solubility in water (in words) [1]	ABO hemolysis [2]	inhibition of ABO incompatible hemolysis (in words) [2]	TAC assay, antioxidant activity [3]	PICO green - NETs, free DNA release [4]	antioxidant capacity (in words) [3]	inhibition of NETosis (in words) ([4]; peptides 2 mM, immune complexes + H2O2, PicoGreen free DNA)	binding to C1q (in words) (C1q)
CC[C@H](C)[C@H](N)C(=O)N(C)CC(=O)N[C@@H](CC(C)C)C(=O)N[C@H](C(=O)N[C@@H](CC(C)C)C(=O)N[C@@H](CCC(=O)O)C(=O)N1CCC[C@H]1C(=O)N[C@H](C(=O)N[C@@H](CS)C(=O)N[C@@H](CS)C(=O)N[C@@H](CCC(N)=O)C(=O)N[C@@H](CCC(=O)O)C(=O)N[C@@H](CCCNC(=N)N)C(=O)N[C@@H](C)C(=O)N[C@@H](C)C(=O)O)[C@@H](C)CC)[C@@H](C)CC [A2]	soluble in water	18.50 % of Control	to a greater extent than did the PA-dPEG24	1071.61 copper reducing equivalents (CRE)	44			
CC[C@H](C)[C@H](N)C(=O)N[C@@H](C)C(=O)N[C@@H](CC(C)C)C(=O)N[C@H](C(=O)N[C@@H](CC(C)C)C(=O)N[C@@H](CCC(=O)O)C(=O)N1CCC[C@H]1C(=O)N[C@H](C(=O)N(C)CC(=O)N[C@@H](CCC(N)=O)C(=O)N[C@@H](CCC(=O)O)C(=O)N[C@@H](CCCNC(=N)N)C(=O)N[C@@H](C)C(=O)N[C@@H](C)C(=O)O)[C@@H](C)CC)[C@@H](C)CC [C9,10] (H-IALILEPI[Sar]QERAA-OH)	soluble in water							
CC[C@H](C)[C@H](N)C(=O)N[C@@H](C)C(=O)N[C@@H](CC(C)C)C(=O)N(C)CC(=O)N[C@@H](CC(C)C)C(=O)N[C@@H](CCC(=O)O)C(=O)N1CCC[C@H]1C(=O)N[C@H](C(=O)N[C@@H](CS)C(=O)N[C@@H](CS)C(=O)N[C@@H](CCC(N)=O)C(=O)N[C@@H](CCC(=O)O)C(=O)N[C@@H](CCCNC(=N)N)C(=O)N[C@@H](C)C(=O)N[C@@H](C)C(=O)O)[C@@H](C)CC [I4]	soluble in water	18.25 % of Control	to a greater extent than did the PA-dPEG24	1518.02 copper reducing equivalents (CRE)	68	approaching that of PA-dPEG24	reduced ability to inhibit NETosis	
CC[C@H](C)[C@H](N)C(=O)N[C@@H](C)C(=O)N(C)CC(=O)N[C@H](C(=O)N[C@@H](CC(C)C)C(=O)N[C@@H](CCC(=O)O)C(=O)N1CCC[C@H]1C(=O)N[C@H](C(=O)N[C@@H](CS)C(=O)N[C@@H](CS)C(=O)N[C@@H](CCC(N)=O)C(=O)N[C@@H](CCC(=O)O)C(=O)N[C@@H](CCCNC(=N)N)C(=O)N[C@@H](C)C(=O)N[C@@H](C)C(=O)O)[C@@H](C)CC)[C@@H](C)CC [L3]	soluble in water	24.75 % of Control		1336.63 copper reducing equivalents (CRE)	29	approaching that of PA-dPEG24		
CC[C@H](C)[C@H](N)C(=O)N[C@@H](C)C(=O)N[C@@H](CC(C)C)C(=O)N[C@H](C(=O)N(C)CC(=O)N[C@@H](CCC(=O)O)C(=O)N1CCC[C@H]1C(=O)N[C@H](C(=O)N[C@@H](CS)C(=O)N[C@@H](CS)C(=O)N[C@@H](CCC(N)=O)C(=O)N[C@@H](CCC(=O)O)C(=O)N[C@@H](CCCNC(=N)N)C(=O)N[C@@H](C)C(=O)N[C@@H](C)C(=O)O)[C@@H](C)CC)[C@@H](C)CC [L5]	soluble in water	33.50 % of Control		882.23 copper reducing equivalents (CRE)	32			
CC[C@H](C)[C@H](N)C(=O)N[C@@H](C)C(=O)N[C@@H](CC(C)C)C(=O)N[C@H](C(=O)N[C@@H](CC(C)C)C(=O)N[C@@H](CCC(=O)O)C(=O)N1CCC[C@H]1C(=O)N[C@H](C(=O)N[C@@H](CS)C(=O)N[C@@H](CS)C(=O)N[C@@H](CCC(N)=O)C(=O)N[C@@H](CCC(=O)O)C(=O)N[C@@H](CCCNC(=N)N)C(=O)N[C@@H](C)C(=O)N[C@@H](C)C(=O)O)[C@@H](C)CC)[C@@H](C)CC [PA]	poor aqueous solubility			1289.18 copper reducing equivalents (CRE)				superior binding to C1q
